Measured values: US20250115597A1, “TYK2 INHIBITORS AND COMPOSITIONS AND METHODS THEREOF” (LYNK PHARMACEUTICALS CO. LTD., priority 2021, published 2025)

biological target: T1, Ba/F3-FL-TYK2-P760L cells (Homo sapiens, UniProt P29597, P760L, cells depend on it); test: Anti-proliferative assay, Ba/F3-FL-TYK2-P760L cells (Cell-Titer Glo); format: cell-based; conditions: 72 h, read-out: BaF3-FL-T2P760L IC50
T1 construct: BaF3-FL-T2P760L (nM)
Summary of the method: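 Compound exposure ran 72 h at 37 °C in 5% CO2 across nine 3-fold concentrations from a 20 μM top dose, added 24 h after seeding 2000 cells/well.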

T1 sequence (P29597 whole entry P760L): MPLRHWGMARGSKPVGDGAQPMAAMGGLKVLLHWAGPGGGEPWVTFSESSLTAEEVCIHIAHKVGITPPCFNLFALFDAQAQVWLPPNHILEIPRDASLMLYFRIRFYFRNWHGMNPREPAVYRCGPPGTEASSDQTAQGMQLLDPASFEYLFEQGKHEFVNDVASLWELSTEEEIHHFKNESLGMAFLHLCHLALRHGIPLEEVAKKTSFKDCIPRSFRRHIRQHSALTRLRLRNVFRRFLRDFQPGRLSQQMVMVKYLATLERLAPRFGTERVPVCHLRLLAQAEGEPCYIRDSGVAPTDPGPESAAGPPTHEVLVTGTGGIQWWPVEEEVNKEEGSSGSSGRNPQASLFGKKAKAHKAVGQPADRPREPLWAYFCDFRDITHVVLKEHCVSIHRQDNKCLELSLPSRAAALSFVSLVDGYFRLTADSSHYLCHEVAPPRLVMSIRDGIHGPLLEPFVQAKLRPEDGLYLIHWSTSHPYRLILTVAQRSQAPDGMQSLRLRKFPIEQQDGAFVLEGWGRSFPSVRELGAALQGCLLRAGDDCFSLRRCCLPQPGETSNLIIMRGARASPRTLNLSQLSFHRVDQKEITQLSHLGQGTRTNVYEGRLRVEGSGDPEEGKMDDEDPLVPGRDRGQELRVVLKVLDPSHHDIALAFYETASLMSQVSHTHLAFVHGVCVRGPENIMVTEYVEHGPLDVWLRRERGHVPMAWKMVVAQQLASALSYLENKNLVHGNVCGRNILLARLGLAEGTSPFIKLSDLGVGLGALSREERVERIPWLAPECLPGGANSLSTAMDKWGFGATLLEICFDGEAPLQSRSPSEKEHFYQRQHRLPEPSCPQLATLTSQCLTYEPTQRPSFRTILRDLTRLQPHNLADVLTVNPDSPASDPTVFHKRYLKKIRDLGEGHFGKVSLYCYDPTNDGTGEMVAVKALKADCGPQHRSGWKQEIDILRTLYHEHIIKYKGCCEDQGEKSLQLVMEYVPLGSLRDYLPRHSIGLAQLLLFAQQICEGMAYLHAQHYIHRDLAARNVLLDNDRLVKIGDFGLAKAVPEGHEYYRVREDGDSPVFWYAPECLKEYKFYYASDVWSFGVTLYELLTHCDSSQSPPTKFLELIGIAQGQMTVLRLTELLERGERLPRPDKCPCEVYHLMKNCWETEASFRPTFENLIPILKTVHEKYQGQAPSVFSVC

| GI50 [nM] | Structure (SMILES) |
| --- | --- |
| 736 | [2H]C([2H])([2H])NC(=O)c1cnc(NC(=O)[C@H]2C[C@@H](C#N)C2)cc1Nc1ccc2cnn(CC)c2c1OC [Example 128A, 6-((Cis)-3-cyanocyclobutane-1-carboxamido)-4-((1-ethyl-7-methoxy-1H-indazol-6-yl)amino)-N-(methyl-d3)nicotinamide] |
| 1710 | [2H]C([2H])([2H])NC(=O)c1cnc(NC(=O)[C@H]2C[C@H](C#N)C2)cc1Nc1ccc2cnn(CC)c2c1OC [Example 128B, 6-((Trans)-3-cyanocyclobutane-1-carboxamido)-4-((1-ethyl-7-methoxy-1H-indazol-6-yl)amino)-N-(methyl-d3)nicotinamide] |
| 357 | [2H]C([2H])([2H])NC(=O)c1cnc(NC(=O)C2CC2)cc1Nc1ccc2cnn(CCOC)c2c1OC [Example 130, 6-(Cyclopropanecarboxamido)-4-((7-methoxy-1-(2-methoxyethyl)-1H-indazol-6-yl)amino)-N-(methyl-d3)nicotinamide] |
| 394 | [2H]C([2H])([2H])NC(=O)c1cnc(NC(=O)C2CC2)cc1Nc1ccc2cnn(C(C)C)c2c1OC([2H])([2H])[2H] [Example 133, 6-(Cyclopropanecarboxamido)-4-((1-isopropyl-7-(methoxy-d3)-1H-indazol-6-yl)amino)-N-(methyl-d3)nicotinamide] |
| 326 | [2H]C([2H])([2H])NC(=O)c1cnc(Nc2cnn(C)c2)nc1Nc1ccc2cnn(CC)c2c1OC([2H])([2H])[2H] [Example 136, 4-((1-Ethyl-7-(methoxy-d3)-1H-indazol-6-yl)amino)-N-(methyl-d3)-2-((1-methyl-1H-pyrazol-4-yl)amino)pyrimidine-5-carboxamide] |
| 88.8 | [2H]C([2H])([2H])NC(=O)c1cnc(Nc2ccn(C3CC3)n2)cc1Nc1ccc2cnn(CC)c2c1OC [Example 138, 6-((1-Cyclopropyl-1H-pyrazol-3-yl)amino)-4-((1-ethyl-7-methoxy-1H-indazol-6-yl)amino)-N-(methyl-d3)nicotinamide] |
| 82.4 | [2H]C([2H])([2H])NC(=O)c1cnc(NC(=O)C2CC2)cc1Nc1ccc2cnn(C([2H])([2H])[2H])c2c1OC [Example 140, 6-(Cyclopropanecarboxamido)-4-((7-methoxy-1-(methyl-d3)-1H-indazol-6-yl)amino)-N-(methyl-d3)nicotinamide] |
| 169 | [2H]C([2H])([2H])NC(=O)c1cnc(NC(=O)C2CC2)cc1Nc1cc(F)c2cnn(C([2H])([2H])C([2H])([2H])[2H])c2c1OC [Example 142, 6-(Cyclopropanecarboxamido)-4-((1-(ethyl-d5)-4-fluoro-7-methoxy-1H-indazol-6-yl)amino)-N-(methyl-d3)nicotinamide] |
| 108 | [2H]C([2H])([2H])NC(=O)c1cnc(NC(=O)C2CC2)cc1Nc1ccc2cnn(C3CC3)c2c1OC [Example 143, 6-(Cyclopropanecarboxamido)-4-((1-cyclopropyl-7-methoxy-1H-indazol-6-yl)amino)-N-(methyl-d3)nicotinamide] |
| 83.6 | [2H]C([2H])([2H])NC(=O)c1cnc(NC(=O)C2CC2)cc1Nc1ccc2cnn(C3CC3)c2c1OC([2H])([2H])[2H] [Example 145, 6-(Cyclopropanecarboxamido)-4-((1-cyclopropyl-7-(methoxy-d3)-1H-indazol-6-yl)amino)-N-(methyl-d3)nicotinamide] |
| 832 | [2H]C([2H])([2H])NC(=O)c1cnc(Nc2ccn(C3CC3)n2)nc1Nc1cccc(-c2ncn(C)n2)c1OC [Example 146, 2-((1-Cyclopropyl-1H-pyrazol-3-yl)amino)-4-((2-methoxy-3-(1-methyl-1H-1,2,4-triazol-3-yl)phenyl)amino)-N-(methyl-d3)pyrimidine-5-carboxamide] |
| 902 | CNC(=O)c1cnc(NC(=O)C2CC2)cc1Nc1cc(Br)c2nn3c(c2c1OC)CCC3 [Example 155, 4-((6-Bromo-9-methoxy-2,3-dihydro-1H-pyrrolo[1,2-b]indazol-8-yl)amino)-6-(cyclopropanecarboxamido)-N-methylnicotinamide] |
| 2900 | CNC(=O)c1cnc(NC(=O)C2CC2)cc1Nc1ccc2nn3c(c2c1OC)CCC3 [Example 156, 6-(Cyclopropanecarboxamido)-4-((9-methoxy-2,3-dihydro-1H-pyrrolo[1,2-b]indazol-8-yl)amino)-N-methylnicotinamide] |
| 28.3 | [2H]C([2H])([2H])NC(=O)c1cnc(Nc2ccc(F)cn2)cc1Nc1cn(C)c2c(Cl)cn(C)c(=O)c12 [Example 159, 4-((7-Chloro-1,5-dimethyl-4-oxo-4,5-dihydro-1H-pyrrolo[3,2-c]pyridin-3-yl)amino)-6-((5-fluoropyridin-2-yl)amino)-N-(methyl-d3)nicotinamide] |
| 29.7 | [2H]C([2H])([2H])NC(=O)c1cnc(Nc2ccc(F)cn2)cc1Nc1cn(C)c2c(Cl)cn(CC)c(=O)c12 [Example 160, 4-((7-Chloro-5-ethyl-1-methyl-4-oxo-4,5-dihydro-1H-pyrrolo[3,2-c]pyridin-3-yl)amino)-6-((5-fluoropyridin-2-yl)amino)-N-(methyl-d3)nicotinamide] |
| 25.9 | [2H]C([2H])([2H])NC(=O)c1cnc(Nc2cc(F)ccn2)cc1Nc1cn(C)c2c(Cl)cn(CC)c(=O)c12 [Example 162, 4-((7-Chloro-5-ethyl-1-methyl-4-oxo-4,5-dihydro-1H-pyrrolo[3,2-c]pyridin-3-yl)amino)-6-((4-fluoropyridin-2-yl)amino)-N-(methyl-d3)nicotinamide] |
| 349 | [2H]C([2H])([2H])NC(=O)c1cnc(NC(=O)C2CC2)cc1Nc1ccc2nnn(CC)c2c1OC [Example 164, 6-(Cyclopropanecarbonylamino)-4-[(3-ethyl-4-methoxy-benzotriazol-5-yl)amino]-N-(trideuteriomethyl)pyridine-3-carboxamide] |
| 27.6 | [2H]C([2H])([2H])NC(=O)c1cnc(Nc2ccc(F)cn2)cc1Nc1cn(C)c2c(Cl)cn(C([2H])([2H])[2H])c(=O)c12 [Example 170, 4-((7-Chloro-1-methyl-5-(methyl-d3)-4-oxo-4,5-dihydro-1H-pyrrolo[3,2-c]pyridin-3-yl)amino)-6-((5-fluoropyridin-2-yl)amino)-N-(methyl-d3)nicotinamide] |
| 124 | [2H]C([2H])([2H])NC(=O)c1cnc(NC(=O)C2CC2)cc1Nc1csc2c(Cl)cn(C(C)C)c(=O)c12 [Example 175, 4-((7-Chloro-5-isopropyl-4-oxo-4,5-dihydrothieno[3,2-c]pyridin-3-yl)amino)-6-(cyclopropanecarboxamido)-N-(methyl-d3)nicotinamide] |
| 183 | [2H]C([2H])([2H])NC(=O)c1cnc(NC(=O)C2CC2)cc1Nc1csc2c(Cl)cn(CC(F)(F)F)c(=O)c12 [Example 176, 4-((7-Chloro-4-oxo-5-(2,2,2-trifluoroethyl)-4,5-dihydrothieno[3,2-c]pyridin-3-yl)amino)-6-(cyclopropanecarboxamido)-N-(methyl-d3)nicotinamide] |
| 91 | [2H]C([2H])([2H])NC(=O)c1cnc(NC(=O)C2CC2)cc1Nc1csc2c(F)cn(C)c(=O)c12 [Example 177, 6-(Cyclopropanecarboxamido)-4-((7-fluoro-5-methyl-4-oxo-4,5-dihydrothieno[3,2-c]pyridin-3-yl)amino)-N-(methyl-d3)nicotinamide] |
| 287 | CCn1ncc2scc(Nc3cc(NC(=O)C4CC4)ncc3C(=O)OC)c2c1=O [Example 178, Methyl 6-(cyclopropanecarboxamido)-4-((5-ethyl-4-oxo-4,5-dihydrothieno[2,3-d]pyridazin-3-yl)amino)nicotinate] |
| > 5000 | [2H]C([2H])([2H])NC(=O)c1cnc(NC(=O)C2CC2)cc1Nc1csc2cnn(CCOC)c(=O)c12 [Example 179, 6-(Cyclopropanecarboxamido)-4-((5-(2-methoxyethyl)-4-oxo-4,5-dihydrothieno[2,3-d]pyridazin-3-yl)amino)-N-(methyl-d3)nicotinamide] |
| 1350 | [2H]C([2H])([2H])NC(=O)c1cnc(NC(=O)C2CC2)cc1Nc1csc2cnn(C(C)CC)c(=O)c12 (centres unmarked) [Example 180, 4-((5-(Sec-butyl)-4-oxo-4,5-dihydrothieno[2,3-d]pyridazin-3-yl)amino)-6-(cyclopropanecarboxamido)-N-(methyl-d3)nicotinamide] |
| 1900 | [2H]C([2H])([2H])NC(=O)c1cnc(NC(=O)C2CC2)cc1Nc1csc2cnn(CC(C)OC)c(=O)c12 (centres unmarked) [Example 181, 6-(Cyclopropanecarboxamido)-4-((5-(2-methoxypropyl)-4-oxo-4,5-dihydrothieno[2,3-d]pyridazin-3-yl)amino)-N-(methyl-d3)nicotinamide] |
| 491 | [2H]C([2H])([2H])NC(=O)c1cnc(NC(=O)C2CC2)cc1Nc1csc2cnn(C(C)COC)c(=O)c12 (centres unmarked) [Example 182, 6-(Cyclopropanecarboxamido)-4-((5-(1-methoxypropan-2-yl)-4-oxo-4,5-dihydrothieno[2,3-d]pyridazin-3-yl)amino)-N-(methyl-d3)nicotinamide] |
| 710 | [2H]C([2H])([2H])NC(=O)c1cnc(NC(=O)C2CC2)cc1Nc1csc2cnn(CCOCC)c(=O)c12 [Example 183, 6-(Cyclopropanecarboxamido)-4-((5-(2-ethoxyethyl)-4-oxo-4,5-dihydrothieno[2,3-d]pyridazin-3-yl)amino)-N-(methyl-d3)nicotinamide] |
| 309 | COC(=O)c1cnc(NC(=O)C2CC2)cc1Nc1csc2c(C#N)cn(C)c(=O)c12 [Example 186, Methyl 4-((7-cyano-5-methyl-4-oxo-4,5-dihydrothieno[3,2-c]pyridin-3-yl)amino)-6-(cyclopropanecarboxamido)nicotinate] |
| 442 | [2H]C([2H])([2H])NC(=O)c1cnc(NC(=O)C2CC2)cc1Nc1csc2c(C)nn(CC)c(=O)c12 [Example 187, 6-(Cyclopropanecarboxamido)-4-((5-ethyl-7-methyl-4-oxo-4,5-dihydrothieno[2,3-d]pyridazin-3-yl)amino)-N-(methyl-d3)nicotinamide] |
